Test results from patent US10517833B2 (Cardiora Pty Ltd., priority 2011, dated 2019).
In brackets after ≈: the same amount, converted by molar mass. Read-outs that look alike come from different tables or passages of the source.

Experiments:
[1] = pH solubility studies on Milrinone (saturated solubility in different buffers); format: physicochemical; settings: for solubility at 24 h: thermodynamic from solid
Experimental: 1. pH 1.2-Hydrochloric Acid Buffer
3. pH 6.8-Phosphate Buffer
4. pH 7.4-Phosphate Buffer.
1. 2 mL buffer solution is placed into a 8 mL USP Type I clear glass vial (with screw cap and PTFE septa)
3. The addition of Milrinone is continued till the formation of saturated solution.
4. The pH of the saturated solution is measured after the addition of Milrinone.
5. If there is any difference in pH more than 0.1 units is observed when compared to the initial pH, the pH was adjusted with acid or base respectively to bring it to the initial pH.
6. The vials are closed with screw cap and kept for mixing using rotary tube shaker for 24 h.

[2] = after 6 hours (equilibrium), AHF patients, cited from earlier work
patients with severe CHF [3] = settings: cited from earlier work
[4] = tested on: patients with endstage CHF; settings: compared with the preceding 3 months; cited from earlier work
refractory HF patients = settings: 12-month study, cited from earlier work
[5] = tested on: patients undergoing CABG surgery; settings: ten minutes after drug administration versus before; cited from earlier work
[6] = tested on: pediatric patients at high risk for developing low cardiac output syndrome (LCOS); settings: cited from earlier work
[7] = tested on: pediatric patients with low cardiac output; settings: intravenous; cited from earlier work
[8] = tested on: patients with left ventricular dysfunction and/or pulmonary hypertension; settings: 50 μg/kg loading then 0.5 μg/kg/minute, n=15; cited from earlier work
[9] = tested on: patients with NYHA class III or IV HF and pulmonary vascular resistance of 200 dynes/s/cm or more; design: dose or concentration left out as unconfirmed; settings: cited from earlier work
patients with CHF = tested on: patients with CHF; design: dose or concentration left out as unconfirmed; settings: 15 minutes post-dosing, cited from earlier work
[10] = tested on: patients with class III or IV CHF; settings: after milrinone therapy; 5 patients at baseline; cited from earlier work
[11] = tested on: Human internal mammary arterial rings; settings: rings pretreated with milrinone; cited from earlier work
[12] = tested on: patients undergoing cardiopulmonary bypass; settings: cited from earlier work
patients with severe CHF [13] = settings: oral, cited from earlier work

SMILES: Cc1[nH]c(=O)c(C#N)cc1-c1ccncc1 [milrinone, 1,2-dihydro-3-cyano-6-methyl-5-(4-pyridinyl)-2(1H)-pyridinone]
- solubility ([1]; acidic pH, decreases gradually with increase in pH): highly soluble
- solubility at 24 h ([1]; aqueous buffer, pH 4.5 Acetate Buffer): 1830 µg/mL (≈ 8.64 mM)
- solubility at 24 h ([1]; aqueous buffer, pH 6.8 Phosphate Buffer): 742 µg/mL (≈ 3.51 mM)
- solubility at 24 h ([1]; aqueous buffer, pH 7.4 Phosphate Buffer): 603 µg/mL (≈ 2.85 mM)
- solubility at 24 h ([1]; hydrochloric acid buffer, simulated gastric fluid, pH 1.2 Hydrochloric Acide Buffer): 25400 µg/mL (≈ 120 mM)
- plasma milrinone concentration ([2]; continuous infusion 0.25 μg/kg after loading dose): 97 ng/mL
- plasma milrinone concentration ([2]; continuous infusion 0.5 μg/kg after loading dose): 197 ng/mL
- plasma milrinone concentration ([2]; continuous infusion 0.75 μg/kg after loading dose): 284 ng/mL
- left ventricular end-diastolic pressure (patients with severe CHF [3]; after median short-term infusion 75 μg/kg IV, from 27 at baseline): 18 mmHg
- increase in left ventricular ejection fraction (patients with severe CHF [3]; following a 7.5 mg oral dose, 10 patients on drug for 6 months or longer): 27%
- decrease in mean arterial pressure (patients with severe CHF [3]; intravenous): 6%
- increase in peak positive first derivative of left ventricular pressure (dP/dT) (patients with severe CHF [3]; intravenous): 28%
- increase in resting heart rate (patients with severe CHF [3]; intravenous): 8%
- fever, thrombocytopenia, or gastrointestinal toxicity (patients with severe CHF [3]; oral therapy, average 29 mg daily, up to 11 months): No evidence
- drop in number of hospitalizations [4]: fourfold
- emergency room admissions (refractory HF patients; from 21 in previous year): 10
- hospital admissions (refractory HF patients; from 75 in previous year): 34
- hospital days (refractory HF patients; from 528 in previous year): 150
- change in IMA flow [5]: 24%
- patients who developed LCOS ([6]; high-dose group, within 36 hours): 9.6%
- patients with prolonged hospital stays (longer than 15 days) ([6]; high-dose group): 13.5%
- RRR of LCOS ([6]; low-dose group versus placebo, not statistically significant): 34%
- patients who developed LCOS ([6]; low-dose group): 17.7%
- patients with prolonged hospital stays (longer than 15 days) ([6]; low-dose group): 8.2%
- average peak plasma concentration [7]: 235 ng/mL
- mean decrease in blood pressure [7]: 12%
- weaning from cardiopulmonary bypass [8]: all patients were successfully weaned
- mean decrease in pulmonary vascular resistance ([9]; at 5 minutes): 31%
- duration of response [9]: at least 20 minutes
- pulmonary vascular resistance (patients with CHF; from 3.9): 2.5 Wood units
- Cardiac output (patients with CHF; from 4.0): 5.1 L/min
- pulmonary capillary wedge pressure (patients with CHF; from 20): 15 mmHg
- mean pulmonary artery pressure (patients with CHF; from 35): 28 mmHg
- inducible VT during programmed right ventricular stimulation [10]: none of the patients experienced inducible VT
- vasoconstriction by K+, ET-1, U46619 and phenylephrine [11]: significantly less vasoconstricition
- Plasma concentrations of IL1-beta and IL6 ([12]; after CPB, versus control group, 0.5 μg/kg/minute for 24 hours): significantly lower
- concentrations of cyclic adenosine monophosphate ([12]; versus controls): significantly increased
- mortality rate (patients with severe CHF [13]; at 1 year of therapy): 63%
- mortality rate (patients with severe CHF [13]; at 6 months): 39%
- patients with adverse effects (patients with severe CHF [13]; average 27 mg/day): 11%
- patients with drug withdrawal due to adverse effects (patients with severe CHF [13]; average 27 mg/day): 4%
- patients improved by at least one New York Heart Association functional class (patients with severe CHF [13]; within 1 month of therapy, remaining 94 patients): 51%

SMILES: CNC[C@H](O)c1ccc(O)c(O)c1 [epinephrine]
- change in IMA flow [5]: unchanged
